In publication PMC9694544, “Conteltinib (CT-707) in patients with advanced ALK-positive non-small cell lung cancer: a multicenter, open-label, first-in-human phase 1 study” (BMC Medicine, 2022):

Tested on: patients with ALK-positive NSCLC
Assay: Phase 1 safety assessment (TRAEs by CTCAE 4.03, DLT, MTD, RP2D)
Assay type: in vivo, human
Method: In the dose-escalation phase, the dose was escalated sequentially from a low to a high level with a 3 + 3 dose-escalation scheme based on the modified Fibonacci method. The starting dose for conteltinib was 50 mg orally quaque die (QD). Dose escalation proceeded to the next six cohorts of 100 mg, 200 mg, 300 mg, 450 mg, 600 mg, and 800 mg QD. For each dose, there was a PK lead-in phase where a single dose was given 7 days before cycle 1 day 1. Then, each dose was taken continuously in a 28-day cycle. The first cycle was for dose-limiting toxicity (DLT) investigation. When one of three patients experienced a DLT in a dose cohort, three additional patients were enrolled in the same dose cohort to assess the dose level in a total of six patients. All patients received conteltinib until disease progression, unacceptable toxicity, or withdrawal of consent. Patients received follow-up safety assessments for 30 days (±7 days) after the last conteltinib dose.
In the dose-expansion phase, each dose was taken continuously in a 28-day cycle. At the end of each cycle, a safety evaluation was conducted. If patients met the criteria to enter the next cycle, treatment with conteltinib was continued for subsequent cycles. All patients received conteltinib until disease progression, unacceptable toxicity, or withdrawal of consent. Patients received follow-up safety assessments for 30 days (±7 days) after the last dose of conteltinib.
The safety of conteltinib was assessed in safety set (SS) which was based on the National Cancer Institute Common Terminology Criteria for Adverse Events (CTCAE) version 4.03, laboratory tests, vital signs, ECG, and clinical observations. […] Adverse events (AEs) were judged to be treatment-related or not by investigators.
DLTs were AEs occurring in the first cycle of treatment (28 days) that were attributed to conteltinib, and the criteria were grade 4 neutropenia lasting ≥ 7 days, febrile neutropenia, grade 3 thrombocytopenia, grade 3 non-hematologic toxicity, and any conteltinib-related toxicity resulting in treatment delay > 2 weeks or discontinuation of conteltinib treatment at the assigned dose level. Besides, grade 3 nausea, vomiting, or diarrhea for ≥ 3 days or grade 4 nausea, vomiting, or diarrhea of any duration was considered as a DLT. The MTD was defined as the dose of conteltinib that would be closest to but not higher than a 33% probability of a DLT.

COc1cc(N2CCC(N3CCN(C)CC3)CC2)ccc1Nc1nc2c(c(Nc3ccccc3S(=O)(=O)NC(C)C)n1)CCN2 [Conteltinib]
TRAE Abdominal pain (200 mg QD (n=3), Grade ≥ 3): 0 (0.0) n (%) | TRAE Abdominal pain upper (200 mg QD (n=3), Grade ≥ 3): 0 (0.0) n (%) | TRAE Appetite decreased (200 mg QD (n=3), Grade ≥ 3): 0 (0.0) n (%) | TRAE Conjugated bilirubin elevated (200 mg QD (n=3), Grade ≥ 3): 0 (0.0) n (%) | TRAE Diarrhea (200 mg QD (n=3), Grade ≥ 3): 0 (0.0) n (%) | TRAE Hypercholesterolemia (200 mg QD (n=3), Grade ≥ 3): 0 (0.0) n (%) | TRAE Hyperglycemia (200 mg QD (n=3), Grade ≥ 3): 0 (0.0) n (%) | TRAE Hypertriglyceridemia (200 mg QD (n=3), Grade ≥ 3): 0 (0.0) n (%) | TRAE Hyperuricemia (200 mg QD (n=3), Grade ≥ 3): 0 (0.0) n (%) | TRAE Hypoalbuminemia (200 mg QD (n=3), Grade ≥ 3): 0 (0.0) n (%) | TRAE Nausea (200 mg QD (n=3), Grade ≥ 3): 0 (0.0) n (%) | TRAE Proteinuria (200 mg QD (n=3), Grade ≥ 3): 0 (0.0) n (%) | TRAE Serum creatinine elevated (200 mg QD (n=3), Grade ≥ 3): 0 (0.0) n (%) | TRAE Vomiting (200 mg QD (n=3), Grade ≥ 3): 0 (0.0) n (%) | TRAE Weight loss (200 mg QD (n=3), Grade ≥ 3): 0 (0.0) n (%) | TRAE γ-GGT elevated (200 mg QD (n=3), Grade ≥ 3): 0 (0.0) n (%) | Patients with any TRAE (300 mg BID (n=12), Grade 1–2): 10 (83.3) n (%) | TRAE ALT elevated (300 mg BID (n=12), Grade 1–2): 3 (25.0) n (%) | TRAE AST elevated (300 mg BID (n=12), Grade 1–2): 3 (25.0) n (%) | TRAE Abdominal pain (300 mg BID (n=12), Grade 1–2): 2 (16.7) n (%) | TRAE Abdominal pain upper (300 mg BID (n=12), Grade 1–2): 3 (25.0) n (%) | TRAE Appetite decreased (300 mg BID (n=12), Grade 1–2): 2 (16.7) n (%) | TRAE Conjugated bilirubin elevated (300 mg BID (n=12), Grade 1–2): 1 (8.3) n (%) | TRAE Diarrhea (300 mg BID (n=12), Grade 1–2): 8 (66.7) n (%) | TRAE Hypercholesterolemia (300 mg BID (n=12), Grade 1–2): 0 (0.0) n (%) | TRAE Hyperglycemia (300 mg BID (n=12), Grade 1–2): 0 (0.0) n (%) | TRAE Hypertriglyceridemia (300 mg BID (n=12), Grade 1–2): 1 (8.3) n (%) | TRAE Hyperuricemia (300 mg BID (n=12), Grade 1–2): 2 (16.7) n (%) | TRAE Hypoalbuminemia (300 mg BID (n=12), Grade 1–2): 4 (33.3) n (%) | TRAE Nausea (300 mg BID (n=12), Grade 1–2): 4 (33.3) n (%) | TRAE Proteinuria (300 mg BID (n=12), Grade 1–2): 3 (25.0) n (%) | TRAE Serum creatinine elevated (300 mg BID (n=12), Grade 1–2): 5 (41.7) n (%) | TRAE Vomiting (300 mg BID (n=12), Grade 1–2): 2 (16.7) n (%) | TRAE Weight loss (300 mg BID (n=12), Grade 1–2): 2 (16.7) n (%) | TRAE γ-GGT elevated (300 mg BID (n=12), Grade 1–2): 3 (25.0) n (%) | Patients with any TRAE (300 mg BID (n=12), Grade ≥ 3): 1 (8.3) n (%) | TRAE ALT elevated (300 mg BID (n=12), Grade ≥ 3): 0 (0.0) n (%) | TRAE AST elevated (300 mg BID (n=12), Grade ≥ 3): 0 (0.0) n (%) | TRAE Abdominal pain (300 mg BID (n=12), Grade ≥ 3): 0 (0.0) n (%) | TRAE Abdominal pain upper (300 mg BID (n=12), Grade ≥ 3): 0 (0.0) n (%) | TRAE Appetite decreased (300 mg BID (n=12), Grade ≥ 3): 0 (0.0) n (%) | TRAE Conjugated bilirubin elevated (300 mg BID (n=12), Grade ≥ 3): 1 (8.3) n (%) | TRAE Diarrhea (300 mg BID (n=12), Grade ≥ 3): 0 (0.0) n (%) | TRAE Hypercholesterolemia (300 mg BID (n=12), Grade ≥ 3): 0 (0.0) n (%) | TRAE Hyperglycemia (300 mg BID (n=12), Grade ≥ 3): 0 (0.0) n (%) | TRAE Hypertriglyceridemia (300 mg BID (n=12), Grade ≥ 3): 0 (0.0) n (%) | TRAE Hyperuricemia (300 mg BID (n=12), Grade ≥ 3): 0 (0.0) n (%) | TRAE Hypoalbuminemia (300 mg BID (n=12), Grade ≥ 3): 0 (0.0) n (%) | TRAE Nausea (300 mg BID (n=12), Grade ≥ 3): 0 (0.0) n (%) | TRAE Proteinuria (300 mg BID (n=12), Grade ≥ 3): 0 (0.0) n (%) | TRAE Serum creatinine elevated (300 mg BID (n=12), Grade ≥ 3): 0 (0.0) n (%) | TRAE Vomiting (300 mg BID (n=12), Grade ≥ 3): 0 (0.0) n (%) | TRAE Weight loss (300 mg BID (n=12), Grade ≥ 3): 0 (0.0) n (%) | TRAE γ-GGT elevated (300 mg BID (n=12), Grade ≥ 3): 1 (8.3) n (%) | Patients with any TRAE (300 mg QD (n=3), Grade 1–2): 3 (100) n (%) | TRAE AST elevated (300 mg QD (n=3), Grade 1–2): 1 (33.3) n (%) | TRAE Abdominal pain (300 mg QD (n=3), Grade 1–2): 0 (0.0) n (%) | TRAE Abdominal pain upper (300 mg QD (n=3), Grade 1–2): 0 (0.0) n (%) | TRAE Appetite decreased (300 mg QD (n=3), Grade 1–2): 0 (0.0) n (%) | TRAE Conjugated bilirubin elevated (300 mg QD (n=3), Grade 1–2): 0 (0.0) n (%) | TRAE Diarrhea (300 mg QD (n=3), Grade 1–2): 3 (100) n (%) | TRAE Hypercholesterolemia (300 mg QD (n=3), Grade 1–2): 1 (33.3) n (%) | TRAE Hyperglycemia (300 mg QD (n=3), Grade 1–2): 1 (33.3) n (%) | TRAE Hypertriglyceridemia (300 mg QD (n=3), Grade 1–2): 1 (33.3) n (%) | TRAE Hyperuricemia (300 mg QD (n=3), Grade 1–2): 0 (0.0) n (%) | TRAE Hypoalbuminemia (300 mg QD (n=3), Grade 1–2): 1 (33.3) n (%) | TRAE Nausea (300 mg QD (n=3), Grade 1–2): 1 (33.3) n (%) | TRAE Proteinuria (300 mg QD (n=3), Grade 1–2): 0 (0.0) n (%) | TRAE Serum creatinine elevated (300 mg QD (n=3), Grade 1–2): 1 (33.3) n (%) | TRAE Vomiting (300 mg QD (n=3), Grade 1–2): 1 (33.3) n (%) | TRAE Weight loss (300 mg QD (n=3), Grade 1–2): 3 (100) n (%) | TRAE γ-GGT elevated (300 mg QD (n=3), Grade 1–2): 0 (0.0) n (%) | Patients with any TRAE (300 mg QD (n=3), Grade ≥ 3): 0 (0.0) n (%) | TRAE ALT elevated (300 mg QD (n=3), Grade ≥ 3): 0 (0.0) n (%) | TRAE AST elevated (300 mg QD (n=3), Grade ≥ 3): 0 (0.0) n (%) | TRAE Abdominal pain (300 mg QD (n=3), Grade ≥ 3): 0 (0.0) n (%) | TRAE Abdominal pain upper (300 mg QD (n=3), Grade ≥ 3): 0 (0.0) n (%) | TRAE Appetite decreased (300 mg QD (n=3), Grade ≥ 3): 0 (0.0) n (%) | TRAE Conjugated bilirubin elevated (300 mg QD (n=3), Grade ≥ 3): 0 (0.0) n (%) | TRAE Diarrhea (300 mg QD (n=3), Grade ≥ 3): 0 (0.0) n (%) | TRAE Hypercholesterolemia (300 mg QD (n=3), Grade ≥ 3): 0 (0.0) n (%) | TRAE Hyperglycemia (300 mg QD (n=3), Grade ≥ 3): 0 (0.0) n (%) | TRAE Hypertriglyceridemia (300 mg QD (n=3), Grade ≥ 3): 0 (0.0) n (%) | TRAE Hyperuricemia (300 mg QD (n=3), Grade ≥ 3): 0 (0.0) n (%) | TRAE Hypoalbuminemia (300 mg QD (n=3), Grade ≥ 3): 0 (0.0) n (%) | TRAE Nausea (300 mg QD (n=3), Grade ≥ 3): 0 (0.0) n (%) | TRAE Proteinuria (300 mg QD (n=3), Grade ≥ 3): 0 (0.0) n (%) | TRAE Serum creatinine elevated (300 mg QD (n=3), Grade ≥ 3): 0 (0.0) n (%) | TRAE Vomiting (300 mg QD (n=3), Grade ≥ 3): 0 (0.0) n (%) | TRAE Weight loss (300 mg QD (n=3), Grade ≥ 3): 0 (0.0) n (%) | TRAE γ-GGT elevated (300 mg QD (n=3), Grade ≥ 3): 0 (0.0) n (%) | Patients with any TRAE (450 mg QD (n=14), Grade 1–2): 14 (100) n (%) | TRAE ALT elevated (450 mg QD (n=14), Grade 1–2): 10 (71.4) n (%) | TRAE AST elevated (450 mg QD (n=14), Grade 1–2): 9 (64.3) n (%) | TRAE Abdominal pain (450 mg QD (n=14), Grade 1–2): 5 (35.7) n (%) | TRAE Abdominal pain upper (450 mg QD (n=14), Grade 1–2): 5 (35.7) n (%) | TRAE Appetite decreased (450 mg QD (n=14), Grade 1–2): 2 (14.3) n (%) | TRAE Conjugated bilirubin elevated (450 mg QD (n=14), Grade 1–2): 2 (14.3) n (%) | TRAE Diarrhea (450 mg QD (n=14), Grade 1–2): 13 (92.9) n (%)
